The source of these data is patent US20110158907A1, “DIPHENYL-HETEROARYL DERIVATIVES AND THEIR USE FOR BINDING AND IMAGING AMYLOID PLAQUES” (The Trustees of the Univeristy of Pennsylvania, priority 2007, published 2011).

One data set has as its target fibrillar Aβ aggregates (Homo sapiens, UniProt P05067). As to conditions: read-out: inhibition constants (Ki) for binding to fibrillar Aβ aggregates; cited from earlier work.
Data set [1] addresses T1, Amyloid Plaque (Homo sapiens, UniProt P05067). Description: Inhibition of ^125I-IMPY binding in AD brain homogenates. The settings on record: read-out: Binding Affinity (Ki vs. ^125I-IMPY). Here is the method:
Postmortem brain tissue was obtained and neuropathological diagnosis was confirmed in accordance with the NIA-Reagan Institute Consensus Group criteria. Homogenates were then prepared from dissected gray matter, pooled in phosphate buffered saline and aliquoted into 1-ml portions (100 mg wet tissue/ml), which could be stored at −70° C. for 3-6 months without loss of binding signal.
For the binding assays brain homogenates were incubated with ^125I-IMPY (0.04-0.06 nM diluted in phosphate buffered saline (PBS)) and test compound (10^−5-10^−10 M diluted in PBS containing 0.1% bovine serum albumin (BSA)). Nonspecific binding was defined in the presence of IMPY (600 nM). The bound and free radioactivity was separated by vacuum filtration followed by 2×3 ml washes of PBS. Filters containing the bound ^125I ligand were assayed in a gamma counter.

In the next data set the test system is CNS receptors. Description: Selectivity against CNS receptors. The settings on record: cell wraps r7-r10: No high affinity binding to any CNS receptors.
The nature of data set [2]: Organ distribution of ^123I-33 in normal mice. In kind it is in vivo, ICR mice. The settings on record: i.v.; for Biodistribution Brain / % total counted / Biodistribution Pancreas / Biodistribution Pancrease: normal male mice. As to the method: Total activities of blood were calculated under the assumption that they were 7% of the total body weight.
In data set [3] the target is T1, Amyloid Plaque. The settings on record: AD brain homogenates; read-out: Binding Affinity (Ki vs. ^125I-IMPY), published values; cited from earlier work.
The subject of data set [4] is Aβ plaques in AD brain tissue homogenates. The data set is described as follows: Specific binding of radiolabeled ligands to AD and control brain tissue homogenates. Set-up: species or system human. The settings on record: for specific binding, gray matter homogenates of AD / specific binding, white matter homogenates of AD brain: 0.06 nM [^125I]probe, 0.5 nM [^18F]probe. As to the method: FIG. 6 depicts specific binding of preferred embodiments of the present invention to pooled AD and control brain tissue homogenates. Gray and white matters were dissected from the cortical regions. Higher specific binding was detected mainly in gray matter of AD. Relatively low binding was measured in white matter homogenates of AD as well as in gray and white matter homogenates of the control brain.
AD postmortem brain tissues were obtained from University of Washington Alzheimer's Disease Research Center. The neuropathological diagnosis was confirmed by current criteria (NIA-Reagan Institute Consensus Group, 1997). Homogenates were then prepared from dissected gray matters from four pooled AD patients in phosphate buffered saline (PBS, pH 7.4) at the concentration of approximately 100 mg wet tissue/ml (motor-driven glass homogenizer with setting of 6 for 30 sec). The homogenates were aliquoted into 1 mL-portions and stored at −70° C. for up to 2 years without loss of binding signal.
Similarly, the specific binding of radioiodinated and radiofluorinated ligands (0.06 nM for [^125I]probe and 0.5 nM for [^18F]probe to homogenates, prepared from the gray and white matters of AD and control brain tissues, were carried out as described above. Nonspecific binding was determined in the presence of 2 μM of the corresponding nonradioactive probes.
To further characterize the specificity of plaque binding, we evaluated [^125I]10a and [^18F]17a by a direct in vitro binding assay using homogenates (from different brain regions) prepared from AD and control brain tissues.

Data set [5] deals with Aβ plaques in AD brain sections. The data set is described as follows: In vitro film autoradiography of macroarray brain sections. In kind it is binding, human.
Text: FIG. 5 depicts in vitro film autoradiography of macroarray brain sections constructed from AD and control cases. The Aβ plaques were clearly visualized with low background labeling with two preferred radiofluorinated probes of the present invention.
(§1) To compare different probes using similar sections of human brain tissue, human macro-array brain sections from 6 confirmed AD cases and one control subject were assembled. The presence and localization of plaques on the sections was confirmed with immunohistochemical staining with monoclonal Aβ antibody 4G8 (Sigma). The frozen sections were incubated with [^125I] and [^18F]tracers (200,000-250,000 cpm/200 μL) for 1 h at room temperature. The sections were then dipped in saturated lithium carbonate in 40% EtOH (two two-minute washes) and washed with 40% EtOH (one two-minute wash) followed by rinsing with water for 30 sec. After drying, the ^125I- or ^18F-labeled sections were exposed to Kodak Biomax MR film overnight.
[^18F]tracers: Brain sections from AD subjects were obtained by freezing the brain in powdered dry ice and cut into 20 micrometer-thick sections. The sections were incubated with [^18F]tracers (200,000-250,000 cpm/200 μl) for 1 hr at room temperature. The sections were then dipped in saturated Li2CO3 in 40% EtOH (two two-minute washes) and washed with 40% EtOH (one two-minute wash) followed by rinsing with water for 30 sec. After drying, the ^18F-labeled sections were exposed to Kodak MR film overnight. The results are depicted in the film in FIG. 2.
as §1, with “[^125I]tracers: To” for “To”, “The” for “The frozen”, “[^125I]tracers” for “[^125I] and [^18F]tracers”, “Li2CO3” for “lithium carbonate”, “^125I-labeled” for “^125I- or ^18F-labeled”
A macro-array block was constructed using postmortem human brain samples consisting of seven confirmed AD cases. […] In vitro film autoradiography was carried out using these novel ^125I or ^18F labeled diphenyltriazole probes. […] The labeling pattern was consistent with that observed by immunohistochemical labeling with an antibody (4G8) specific for Aβ (data not shown).

The nature of data set [6]: Partition coefficient (1-octanol/buffer). It is filed as physicochemical. As to conditions: 1-octanol / 0.1 M phosphate buffer pH 7.4. As to the method: Partition coefficients were measured by mixing the [^125I] or [^18F]tracer with 3 g each of 1-octanol and buffer (0.1 M phosphate, pH 7.4) in a test tube. The test tube was vortexed for 3 min at room temperature, followed by centrifugation for 5 min. Two weighed samples (0.5 g each) from the 1-octanol and buffer layers were counted in a well counter. The partition coefficient was determined by calculating the ratio of cpm/g of 1-octanol to that of buffer. Samples from the 1-octanol layer were re-partitioned until consistent partitions of coefficient values were obtained. The measurement was done in triplicate and repeated three times.
Partition coefficients were measured by mixing ^123I-33 with 3 g each of 1-octanol and buffer (0.1 M phosphate, pH 7.4) in a test tube. The test tube was vortexed for 3 min at room temperature, followed by centrifugation for 5 min. Two weighed samples (0.5 g each) from the 1-octanol and the buffer layer were counted in a well counter. The partition coefficient was determined by calculating the ratio of cpm/g of 1-octanol to that of the buffer. Samples from the 1-octanol layer were repartitioned until consistent partitions of,coefficient values were obtained from the third partition. The measurement was done in triplicate and repeated three times.

The conditions of data set [7]: mouse; for brain washout index (brain2 min/brain30 min) / remaining in the brain: in vivo; for remaining in the brain: 2 h.
Protocol: (§2) While under isoflurane anesthesia, 0.15 mL of a 0.1% bovine serum albumin solution containing [^125I] or [^18F]tracers (5-10 μCi) was injected directly into the tail vein of ICR mice (22-25 g, male). The mice (n=3 for each time point) were sacrificed by cervical dislocation at designated time-points post injection. The organs of interest were removed and weighed, and the radioactivity was counted with an automatic gamma counter. The percentage dose per organ was calculated by a comparison of the tissue counts to suitably diluted aliquots of the injected material. The total activity of the blood was calculated under the assumption that it is 7% of the total body weight. The % dose/g of samples was calculated by comparing the sample counts with the count of the diluted initial dose.
Data set [8] can be described thus: Organ distribution of [^125I] or [^18F]tracers in normal mice.
Protocol: as §2
Data set [9] is described as follows: Estimate of human dosimetry extrapolated from the mouse data. As to conditions: proposed 5 mCi human dose. Here is the method:
When administered i.v. to male mice, ^123I-33 entered the brain quickly and reached a peak brain concentration of 3.7% dose/g within 2 min post administration and fell to 0.25% dose/g within 60 min. […] At the proposed 5 mCi human dose the lower large intestine is estimated to receive approximately 3.8 rem, while the upper large intestine is estimated to receive approximately 3.3 rem of exposure.

Another data set concerns Aβ plaques. The data set is described as follows: Labeling of Aβ plaques in AD sections by ^123I-33 at tracer concentrations. It is filed as binding, human.

Structures are written as SMILES. Where two headings read alike, the source gives them in different places.

T1 sequence (P05067 672-711 limits assumed): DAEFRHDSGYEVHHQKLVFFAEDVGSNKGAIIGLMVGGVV
fibrillar Aβ aggregates, sequence (P05067 672-711 limits assumed): as above

Regarding `O=C(O)c1cc(/N=N/c2ccc(-c3ccc(/N=N/c4ccc(O)c(C(=O)O)c4)cc3)cc2)ccc1O` [CG, chrysamine-G], the inhibition constant (Ki) on fibrillar Aβ aggregates is 370 nM.

Take `CN(C)c1ccc(-c2cn(-c3ccc(OCCO)c([123I])c3)nn2)cc1` [Compound 33, 2-(4-(4-(4-(dimethylamino)phenyl)-1H-1,2,3-triazol-1-yl)-2-iodophenoxy)ethanol]: the Ki on Amyloid Plaque [1] was 7.5 ± 0.5 nM. Moreover, the Selectivity entry with CNS receptors is on record as “No high”. Further, the “Biodistribution Brain” value came to 3.69 ± 0.14 % dose/g in data set [2] (2 min) and 0.25 ± 0.03 % dose/g in [2] (60 min).

Take `CC(=C(C#N)C#N)c1ccc2cc(N(C)CCF)ccc2c1` [FDDNP, 2-(1-{6-[(2-fluoroethyl)(methyl)amino]-2-naphthyl}ethylidene)malononitrile]: the inhibition constant (Ki) on Amyloid Plaque [3] is 239 nM.

`CN(C)c1ccc(-c2cn(-c3ccc(OCC[18F])cc3)nn2)cc1` [[^18F]17a]: in [4], the “specific binding signal, homogenates of control brain tissues (gray and white matters)” value is given as “low”; the “specific binding, gray matter homogenates of AD” value is “detected predominantly in the gray matter homogenates of AD”; the “specific binding, white matter homogenates of AD brain” value is reported as “very low or nonexistent”. In addition, in data set [5], the Aβ plaque labeling entry was “most distinctive Aβ plaque-labeling” and the “white matter (background) labeling” value is recorded as “minimal level of background in the white matter areas”. Further, in [6], the log partition coefficient (log P) worked out at 2.7. In data set [7], the “bone uptake (in vivo defluorination)” value was 4.64 % dose/g, the “brain washout index (brain2 min/brain30 min)” value amounted to 2.34 and the “remaining in the brain” value is recorded as 1-2 % dose/g.

For `CN(C)c1ccc(-c2cn(-c3ccc(OCCC[18F])cc3)nn2)cc1` [[^18F]17b], in data set [5], the Aβ plaque labeling entry was “most distinctive Aβ plaque-labeling” and the “white matter (background) labeling” value is recorded as “minimal level of background in the white matter areas”. Further, the “log P” value in data set [6] was 2.7. For the same compound, in data set [7], the “bone uptake (in vivo defluorination)” value is listed as 18.59 % dose/g, the “brain washout index (brain2 min/brain30 min)” value amounted to 2.31 and the “remaining in the brain” value is given as 1-2 % dose/g.

For the compound `CNc1ccc(-c2cn(-c3ccc([125I])cc3)nn2)cc1` [[^125I]10a], in data set [4], the “specific binding signal, homogenates of control brain tissues (gray and white matters)” value was “low”; the “specific binding, gray matter homogenates of AD” value was “detected predominantly in the gray matter homogenates of AD”; the “specific binding, white matter homogenates of AD brain” value is given as “very low or nonexistent”. Besides, the “white matter (background) labeling” value in data set [5] is listed as “significant white matter labeling”. Moreover, in data set [6], the “log P” value was found to be 3.0. Moreover, the “brain washout index (brain2 min/brain30 min)” value in data set [8] came out at 5.66.

For the compound `CN(C)c1ccc(-c2cn(-c3ccc([125I])cc3)nn2)cc1` [[^125I]10b], the “log P” value in [6] was 3.4. Also, the “brain washout index (brain2 min/brain30 min)” value in data set [8] is 3.72.

Compound `CN(C)c1ccc(-c2cn(-c3ccc(OCCO)c([123I])c3)nn2)cc1` [^123I-33, 2-(4-(4-(4-(dimethylamino)phenyl)-1H-1,2,3-triazol-1-yl)-2-[^123I]iodophenoxy)ethanol] gave a pH-dependent lipophilicity (logD) in [6] of 3.25. The logP in data set [6] (1-octanol/buffer (0.1 M phosphate)) is 3.25. In addition, in data set [2] (2 min), the “% total counted” value is on record as 90.41 ± 5.38%, the “Biodistribution Pancreas” value turned out to be 0.90 ± 0.12 % dose/organ and the “Biodistribution Pancrease” value worked out at 5.32 ± 0.08 % dose/g. In data set [2] (60 min), the “% total counted” value is 81.43 ± 5.66%, the “Biodistribution Pancreas” value is given as 0.25 ± 0.11 % dose/organ and the “Biodistribution Pancrease” value amounted to 1.35 ± 0.52 % dose/g. For the same compound, in data set [2] (120 min), the “% total counted” value is 80.05 ± 6.33%, the “Biodistribution Pancreas” value is reported as 0.19 ± 0.09 % dose/organ and the “Biodistribution Pancrease” value was 1.09 ± 0.46 % dose/g. In [2] (180 min), the “% total counted” value turned out to be 81.95 ± 4.47%, the “Biodistribution Pancreas” value was determined as 0.22 ± 0.03 % dose/organ and the “Biodistribution Pancrease” value is recorded as 1.29 ± 0.14 % dose/g. In addition, in [2] (normal mice), the “brain penetration and clearance” value is “readily penetrated and was rapidly cleared from the brain”. In addition, in data set [9], the “estimated exposure of lower large intestine” value is on record as “approximately 3.8 rem”, the “estimated exposure of upper large intestine” value is “approximately 3.3 rem” and the “estimated human effective dose (ED)” value is reported as “approximately 1.26 rem”. In addition, the “labeling of Aβ plaques in sections from patients with pathologically confirmed AD” value with Aβ plaques is “specifically labeled Aβ plaques”.
